Consider 11 molecules from ChEMBL document CHEMBL1201862, “PubChem BioAssay data set” (2004).

Some test systems named below: U-251; SF-295; NCI-H226; EKVX; HCT-15; RPMI-8226; OVCAR-4; MDA-N; SK-MEL-28; OVCAR-3; HT-29; A549; UACC-62; TK-10; KM12; MDA-MB-231; NCI-H522; SR; HL-60; IGROV-1.
Common to all, as to assay: NCI tumour cell line growth inhibition, 48 h

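The compound was tested at five concentrations on cells cultured in 96-well plates, with a 48-hour exposure period. The concentration for 50% growth inhibition is given as GI50.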 Activity calls are given as the source filed them. No stated cut-off is given here; in the data, active = GI50 up to about 1.1 µM and inactive = higher.

As to `CCNc1ccc2c(c1)C(=O)N(OS(C)(=O)=O)C2=O`, the GI50 in the test on U-251 is > 100 µM (inactive); in the test on SF-295, > 100 µM (inactive); with NCI-H226 it was 29 µM (inactive); in the test on EKVX it was 62.7 µM (inactive); in the test with HCT-15 it was 36.1 µM; in the test on RPMI-8226, 31.9 µM (inactive). The GI50 with OVCAR-4 was 42 µM (inactive); in the test with MDA-N, 89.7 µM (inactive); in the test with SK-MEL-28, 57.5 µM (inactive); in the test on OVCAR-3 it was 40.7 µM (inactive); in the test with HT-29, > 100 µM (inactive); with A549 it was > 100 µM (inactive). Besides, the GI50 in the test with UACC-62 is > 100 µM (inactive); with TK-10, > 100 µM (inactive); in the test with KM12, > 100 µM (inactive); in the test on MDA-MB-231, > 100 µM (inactive); in the test with NCI-H522, 16.4 µM (inactive).
Turning to `C[n+]1ccc2/c(=C\C#N)c3ccccc3n21`, the GI50 is 18.2 µM (inactive) in the test with SR; 12.9 µM (inactive) in the test on U-251; 33.7 µM (inactive) in the test with SF-295; 32.5 µM (inactive) with NCI-H226; 24.9 µM (inactive) in the test with EKVX; more than 100 µM in the test on HCT-15. In addition, the GI50 with RPMI-8226 was 11.8 µM (inactive); in the test with OVCAR-4, 21.1 µM (inactive); in the test with MDA-N, 32.5 µM (inactive); with SK-MEL-28 it was 23.1 µM (inactive); in the test with OVCAR-3 it was 14.6 µM (inactive); with HT-29, 22.9 µM (inactive). Also, the GI50 in the test with A549 was 19.1 µM (inactive); in the test with UACC-62 it was 34.8 µM (inactive); with TK-10 it was 22 µM (inactive); in the test on KM12, 19.2 µM (inactive); with HL-60, 17.3 µM (inactive); in the test with IGROV-1 it was 23.9 µM (inactive). Besides, the GI50 with NCI-H522 was 24.5 µM (inactive).
For the molecule `CC(C)CNC(=O)Cn1c(-c2ccccc2)cc2ccccc21`, the GI50 in the test with SR is > 100 µM (inactive); with U-251, > 100 µM (inactive); in the test with SF-295, 54.3 µM (inactive); with NCI-H226, > 100 µM (inactive); in the test with EKVX, > 100 µM (inactive); in the test with HCT-15 it was more than 100 µM. Further, the GI50 with RPMI-8226, with OVCAR-4, with MDA-N, in the test on SK-MEL-28, with OVCAR-3 and in the test with HT-29 was > 100 µM (inactive) throughout. Further, the GI50 in the test with A549, in the test with UACC-62, in the test with TK-10, in the test with KM12, in the test with HL-60 and in the test with IGROV-1 was > 100 µM (inactive) throughout. In the test with NCI-H522, the GI50 is 68.1 µM (inactive).
In the case of `COc1cc2c(c(O)c1OC)C(O)C1CCC(=O)N1C2c1ccc2c(c1)OCO2` (stereo unspecified), the GI50 was > 100 µM (inactive) in the test with SR; > 100 µM (inactive) in the test with U-251; > 100 µM (inactive) in the test on SF-295; > 100 µM (inactive) with NCI-H226; > 100 µM (inactive) with EKVX; more than 100 µM with HCT-15. Moreover, the GI50 was > 100 µM (inactive) in the test with OVCAR-4; > 100 µM (inactive) in the test with SK-MEL-28; > 100 µM (inactive) in the test on OVCAR-3; 80.2 µM (inactive) with HT-29; > 100 µM (inactive) with A549; > 100 µM (inactive) with UACC-62. Moreover, the GI50 with TK-10, with KM12, with HL-60, in the test on MDA-MB-231, in the test on IGROV-1 and in the test with NCI-H522 was > 100 µM (inactive) each time.
In the case of `CCOC(=O)C[C@@H](C)[C@]1(C(=O)OC)CCCC1=O`, the GI50 in the test on SR is 27.9 µM (inactive); with U-251, > 100 µM (inactive); in the test on SF-295, > 100 µM (inactive); with NCI-H226, > 100 µM (inactive); with EKVX it was > 100 µM (inactive); in the test on HCT-15, more than 100 µM. Also, the GI50 in the test on RPMI-8226 was > 49.3 µM (inactive); with OVCAR-4, > 100 µM (inactive); in the test on SK-MEL-28 it was > 100 µM (inactive); in the test on OVCAR-3, > 100 µM (inactive); in the test on HT-29 it was > 65.8 µM (inactive); with A549, > 100 µM (inactive). Also, the GI50 in the test on UACC-62, in the test with TK-10, in the test with KM12, with HL-60, in the test with IGROV-1 and in the test on NCI-H522 was > 100 µM (inactive) throughout.
Take `COc1cc(OC)c2c(O)c(S(=O)(=O)c3ccc(C)cc3)c(=O)oc2c1`: the GI50 in the test with SR was > 100 µM (inactive); in the test on U-251, 96.6 µM (inactive); in the test on SF-295, > 100 µM (inactive); in the test with NCI-H226, > 100 µM (inactive); with EKVX, > 100 µM (inactive); in the test with HCT-15, more than 100 µM. Also, the GI50 is 76.7 µM (inactive) in the test with RPMI-8226; > 100 µM (inactive) in the test on OVCAR-4; > 100 µM (inactive) with SK-MEL-28; > 100 µM (inactive) with OVCAR-3; > 100 µM (inactive) with HT-29; > 100 µM (inactive) in the test on A549. Also, the GI50 was > 100 µM (inactive) in the test with UACC-62; > 100 µM (inactive) with TK-10; 92.5 µM (inactive) in the test with KM12; > 100 µM (inactive) in the test on HL-60; > 100 µM (inactive) in the test with MDA-MB-231; > 100 µM (inactive) in the test on IGROV-1. Besides, in the test on NCI-H522, the GI50 is > 100 µM (inactive).
For `Cc1ccc(S(=O)(=O)OCCn2cnc3nc(NC(=O)c4ccccc4)[nH]c(=O)c32)cc1`, the GI50 in the test on SR is > 100 µM (inactive); in the test with U-251, > 100 µM (inactive); in the test with SF-295 it was > 100 µM (inactive); in the test with NCI-H226 it was > 100 µM (inactive); in the test on EKVX, > 100 µM (inactive); in the test with HCT-15 it was more than 100 µM. Moreover, the GI50 in the test with RPMI-8226, in the test on OVCAR-4, in the test on SK-MEL-28, in the test with OVCAR-3, in the test on HT-29 and with A549 was > 100 µM (inactive) each time. The GI50 is > 100 µM (inactive) with UACC-62; > 100 µM (inactive) in the test with TK-10; > 100 µM (inactive) in the test on KM12; > 100 µM (inactive) in the test with HL-60; > 100 µM (inactive) in the test on IGROV-1; 52.6 µM (inactive) with NCI-H522.
Regarding `O=[N+]([O-])c1ccc(CSC2=C(c3ccc(Cl)cc3)S/C(=C3\SC(SCc4ccc([N+](=O)[O-])cc4)=C(c4ccc(Cl)cc4)S3)S2)cc1`, the GI50 in the test with U-251 was > 100 µM (inactive); with SF-295, > 100 µM (inactive); with NCI-H226 it was > 100 µM (inactive); in the test with EKVX, > 100 µM (inactive); in the test on HCT-15 it was more than 100 µM; with OVCAR-4, > 100 µM (inactive). The GI50 with MDA-N, in the test on SK-MEL-28, in the test with OVCAR-3, in the test with HT-29, in the test with A549 and in the test with UACC-62 was > 100 µM (inactive) each time. In addition, the GI50 with TK-10, in the test with KM12, with MDA-MB-231, in the test with IGROV-1 and with NCI-H522 was > 100 µM (inactive) in each case.
As for `Cn1c(=O)c2[nH]c(Nc3cccc(Cl)c3)nc2n(C)c1=O`, the GI50 with SF-295 is 4.84 µM (inactive); with EKVX, 4.16 µM (inactive); in the test with HCT-15, 4.99 µM; in the test with RPMI-8226, 2.49 µM (inactive); in the test with OVCAR-4, 4.05 µM (inactive); with MDA-N, 4.21 µM (inactive). For the same molecule, the GI50 was 5.42 µM (inactive) in the test with SK-MEL-28; 3.99 µM (inactive) in the test on HT-29; 5.6 µM (inactive) in the test on A549; 3.17 µM (inactive) in the test with UACC-62; 8.91 µM (inactive) in the test on TK-10; 4.78 µM (inactive) with KM12. Besides, the GI50 was 3.31 µM (inactive) with HL-60, 7.48 µM (inactive) in the test with MDA-MB-231 and 3.8 µM (inactive) in the test on IGROV-1.
With `COC(=O)[C@@H]1C(=O)O[C@@H](c2ccc(OC)c(OC)c2OC)[C@@H]1C(=O)OC.COC(=O)[C@H]1C(=O)O[C@@H](c2ccc(OC)c(OC)c2OC)[C@@H]1C(=O)OC`, the GI50 in the test with SR is > 100 µM (inactive); with U-251 it was > 100 µM (inactive); in the test with SF-295, > 100 µM (inactive); in the test with NCI-H226 it was > 100 µM (inactive); with EKVX, > 100 µM (inactive); with HCT-15, more than 100 µM. For the same molecule, the GI50 in the test with RPMI-8226, in the test on OVCAR-4, in the test on SK-MEL-28, with OVCAR-3, with HT-29 and in the test on A549 was > 100 µM (inactive) throughout. Moreover, the GI50 in the test on UACC-62, in the test on TK-10, in the test with KM12, with HL-60, with IGROV-1 and in the test on NCI-H522 was > 100 µM (inactive) in each case.
For the molecule `CCCCCCCC[N+](C)(C)Cc1ccc(C[N+](C)(C)CCCCCCCC)cc1`, the GI50 in the test with SR is > 100 µM (inactive); in the test on U-251, 6.53 µM (inactive); in the test on SF-295, 63.4 µM (inactive); with NCI-H226, 34.5 µM (inactive); in the test on EKVX, > 100 µM (inactive); with HCT-15 it was more than 100 µM. Moreover, the GI50 is 90.2 µM (inactive) in the test on RPMI-8226; 18.6 µM (inactive) with OVCAR-4; > 100 µM (inactive) in the test on SK-MEL-28; 29.6 µM (inactive) with OVCAR-3; 6.03 µM (inactive) in the test with HT-29; 32.8 µM (inactive) with A549. The GI50 in the test on UACC-62 is 77.8 µM (inactive); with TK-10, 86.9 µM (inactive); with KM12, 11.7 µM (inactive); in the test on HL-60, 36.4 µM (inactive); with IGROV-1, 13.4 µM (inactive); in the test on NCI-H522, 5.58 µM (inactive).
